Reference: patent publication US11958869B2, “Ruthenium arene Schiff-base complexes and uses thereof” (CITY UNIVERSITY OF HONG KONG, priority 2021, dated 2024)
Read-outs that look alike come from different tables or passages of the source.

Assays:
MDA-MB-231 mammospheres [1] = test: Viability of MDA-MB-231 mammospheres, Alamar Blue assay (Table 1); assay type: cell-based
MCF-7 = test: cells; assay type: cell-based; details: for IC50: read-out: IC50 (μM) MCF-7 72 h
Experimental: (§1) Cells were seeded in 96-well plates and maintained for 14-16 hours, then were treated with dimethylsulfoxide (DMSO) or test compound at various concentrations (i.e., 0.312, 1.25, 5, 20 μM) for 72 hrs. The cells were then washed with phosphate buffer saline (PBS) twice, added a medium containing 3-(4,5-dimethylthiazol-2-yl)-2,5-diphenyltetrazolium bromide (MTT) at a final concentration of 0.5 mg/mL, and incubated for 4 hr at 37° C. in a humidified incubator containing 5% CO2 in air. Cells having functional succinate dehydrogenase of mitochondria would convert MTT to formazan. Then, the medium was replaced with 100 μL of DMSO for 30 min at room temperature, and the 96-well plate was read by an ELISA reader at 550 nm to get the absorbance density values. The IC50 values of death cell lines were calculated accordingly.
(§2) The Ru^TEN complexes of Example 1 were evaluated for their anti-proliferative properties in two breast cancer cell lines, namely, MCF-7 and MDA-MB-231 cells via MTT assay. […] MCF-7 is a chemotherapy-responsive breast cancer cell line of luminal subtype with high expression of estrogen receptor (ER), whereas MDA-MB-231 is a triple negative breast cancer (TNBC) or basal-like breast cancer cell ine. TNBC is defined as highly invasive cancer that lacks expression of ER, progesterone receptor (PR) and Her-2; it has one of the worst outcomes among all subtypes of breast cancers. The aggressive nature of TNBC may be related to the presence of breast cancer stem cells within the tumor; therefore, MDA-MB-231 cells are often used as a model of mammary cancer stem cells.
(§3) The cytotoxicity of Ru^TEN complexes of Example 1 was compared to that of cisplatin or oxaliplatin, which were known to induce their anticancer effects by the mode of action different from ER stress. Three CSC-selective organic compounds, salinomycin, etoposide and abamectin, were also used for comparison. Briefly, MCF-7 and MDA-MB-231 cells were respectively treated with increasing concentrations of compounds of interest for 24 or 72 hrs and then the cell viability was measured.

MDA-MB-231 = test: Anti-proliferative activity (MTT assay), MDA-MB-231; assay type: cell-based
Experimental: as §1, §2, §3

MDA-MB-231 mammospheres [2] = test: Cytotoxicity in MDA-MB-231 mammospheres (Table 2); assay type: cell-based; details: read-out: IC50 (μM) MDA-MB-231 mammospheres 72 h
MCF-7 mammospheres = test: Mammosphere formation assay, MCF-7; assay type: cell-based; details: for Number of MCF-7 mammospheres / Size (μm) of MCF-7 mammospheres: primary mammospheres grown 96 hr, incubated with compound 72 hrs, >50 μm analyzed
Experimental: (§4) Since the breast cancer stem cells formed a mass of colonies in the form of floating spheres without attaching to a surface of a plate, the size and number of the masses were observed by a mammosphere formation assay to determine a cancer-stem-cell-specific effect.
(§5) Single-cell suspension was cultured at a density of 1,000 to 15,000 cells/well using a MammoCult™ Human Medium kit (Stemcell Technologies Inc Vancouver, CA), and the spherical cells were counted and observed under a microscope.
(§6) The mammosphere assay is based on the concept that when cells proliferate in three-dimensional spheroid structures, only cancer cells with stem-like characteristics are able to evade anoikis.

MDA-MB-231 mammospheres [3] = test: Mammosphere formation assay, MDA-MB-231 primary; assay type: cell-based; details: for Number of MDA-MB-231 mammospheres / Size (μm) of MDA-MB-231 mammospheres: primary mammospheres grown 96 hr, incubated with compound 72 hrs, >50 μm analyzed; for decrease in number of MDA-MB-231 mammospheres / decrease in size of MDA-MB-231 mammospheres: versus control
Experimental: as §4, §5, §6

[4] = tested on: MDA-MB-231 secondary mammospheres; test: Secondary mammosphere formation (self-renewal), MDA-MB-231; assay type: cell-based; details: for Number of MDA-MB-231 secondary mammospheres / Size (μm) of MDA-MB-231 secondary mammospheres: from drug-treated primary mammospheres, grown in drug-free conditions for 7 days; for propensity to form secondary mammospheres: single cells from drug-treated primary mammospheres, 7 days drug-free, FIG. 2
Experimental: To this purpose, drug-treated primary MDA-MB-231 mammospheres were dissociated into single cell suspensions and incubated for 7 days in ultralow attachment drug-free conditions.

[5] = tested on: ALDHbright subpopulation of MDA-MB-231 cells; test: ALDEFLUOR assay (ALDH activity); assay type: cell-based; details: versus control, FIG. 3
Experimental: The cells were stained with […] bodipy-aminoacetaldehyde (BAAA), and then cultured at 37° C. for 45 minutes. An ALDH1 inhibitor, diethyl aminobenzaldehyde (DEAB), was used as the negative control. The stained cells were assayed using BD FACS Aria III. In this case, the positive fluorescent ALDH1-expressed cells (ALDH+) were detected in a green fluorescent channel (520 to 540 nm).
While CD44+/CD24−/low phenotype has often been associated with breast CSC/progenitor cell features, yet there is no correlation between the presence of CD44+/CD24−/low cells and clinical outcome and formation of distant metastases. It is the presence of aldehyde dehydrogenase (ALDH) bright cells which separates highly tumorigenic CD44+/CD24−/low/ALDHbright population from non-tumorigenic cells. Unlike CD44+/CD24−/low, ALDH is a predictor of metastasis and is associated with a poor clinical outcome. The main role of ALDH enzymes is the detoxification of aldehydes generated in various metabolic processes into carboxylic acids. However, several ALDH isoforms are involved in retinoic acid signaling and this particular function was linked to the “stemness” of CSCs. The functional activity of ALDHs can be accurately determined by ascertaining the cellular conversion of […] (BAAA) into a fluorescent molecule BODIPY-aminoacetate (BAA). ATP-binding cassette (ABC)-transporter inhibitors in the assay buffer prevent the efflux of BAA from the cells, resulting in the accumulation of BAA in cytoplasm.

MDA-MB-231 mammospheres [6] = test: Invasion / dispersion of spheroids into 3D collagen; assay type: cell-based; details: cells incubated with compound 72 hr, FIG. 4
Excerpt: CSCs are associated with highly invasive phenotype and it is believed that this subset of cancer cells gives rise to metastases. In order to monitor the dissemination of MCF-7 and MDA-MB-231 breast cancer spheroids, the spheroids were embedded into three-dimensional (3D) collagen scaffold using Aim Biotech 3D cell culture chips. Collagen with spheroids was introduced into the central region of the microfluidic system where it polymerized via thermal cross-linking. Cell culture media was introduced into media channels forcing spheroids to move through collagen towards the media.
Thus, whether Ru^TEN complexes and salinomycin affected the invasive properties of MDA-MB-231 spheroids was then investigated. To this purpose, MDA-MB-231 monolayer cells were incubated with compounds of interest (e.g., Ru^TEN complexes of Examplel or salinomycin) for 72 hr, then the delamination was allowed to proceed for over 28 hr. Results are depicted in FIG. 4.

[7] = tested on: human hepatocellular carcinoma LM3 xenografts; test: Hepatocellular carcinoma LM3 xenograft model; assay type: in vivo, athymic NCr nude mice; details: all doses tested, FIG. 8
Experimental: (§7) Hepatocellular carcinoma LM3 cells (5×10^4 cells/20 μL) or breast cancer MDM-BA-231 cells (5×10^4 cells/20 μL) were implanted subcutaneously in the flanks of athymic NCr nude mice. A total of 40 male NCr nude mice (8 weeks or older weighing 20-24 g or more) were used for the tumor xenografts. The tested compounds (e.g., Ru^TEN 1, Ru^TEN 3, or salinomycin) were intraperitoneally administered at the dose of […] twice per week. Tumor volume was determined by image analysis. The mice in the control group received corresponding injection of 0.1% DMSO. For tumor-bearing NCr nude mice during the 4-weeks (or 28 days) experiment, the % body weight changes refer to: (the total weight on reading day/the total weight on day treatment started)×100. All mice were sacrificed at the end of the experiment (i.e., by the end of 28 days), and tissues including lung, liver, tumor, heart, brain, kidneys, spleen and colon were harvested, and checked for any sign of cancer metastasis.

[8] = tested on: human MD-MBA-231 breast cancer xenografts; test: Breast cancer MDA-MB-231 xenograft model; assay type: in vivo, athymic NCr nude mice; details: doses tested, FIG. 11
Experimental: as §7
Results are depicted in FIGS. 9 to 11.

[9] = 24 h, MTT, read-out: IC50 (μM) MDA-MB-231 24 h
[10] = 72 h, MTT, read-out: IC50 (μM) MDA-MB-231 72 h

N.N.[Cl][Pt][Cl] [Cisplatin, cisplatin]
viability of MDA-MB-231 mammospheres (MDA-MB-231 mammospheres [1]): did not affect the viability | IC50 (MCF-7; 72 h, MTT): 22 ± 7 µM | antiproliferative activity, MCF-7 (MCF-7; MTT): only moderately active | IC50 (MDA-MB-231; [9]): 268 ± 78 µM | IC50 (MDA-MB-231; [10]): 27 ± 8 µM | antiproliferative activity, MDA-MB-231 (MDA-MB-231; MTT): only moderately active | IC50 (MDA-MB-231 mammospheres [2]; 72 h): > 40 µM | inhibition of mammosphere growth, MCF-7 (MCF-7 mammospheres): did not show any potency in inhibiting mammosphere growth | Number of MCF-7 mammospheres (MCF-7 mammospheres): 273 ± 108 | Size (μm) of MCF-7 mammospheres (MCF-7 mammospheres): 106 ± 14 μm | inhibition of mammosphere growth, MDA-MB-231 (MDA-MB-231 mammospheres [3]): did not show any potency in inhibiting mammosphere growth | Number of MDA-MB-231 mammospheres (MDA-MB-231 mammospheres [3]): 136 ± 44 | Size (μm) of MDA-MB-231 mammospheres (MDA-MB-231 mammospheres [3]): 95 ± 25 μm | Number of MDA-MB-231 secondary mammospheres [4]: 67 ± 20 | Size (μm) of MDA-MB-231 secondary mammospheres [4]: 103 ± 30 μm | reduction of ALDHbright sub-population [5]: did not affect ALDHbright cells

CC(C)c1cc(C(C)C)cc(C(C)C)c1.COc1ccc([N+]2=Cc3ccc4ccccc4[n+]3[Ru-]2[Cl])cc1.[Cl-] [Ru^TEN1, [(η6-1,3,5-triisopropybenzene)RuCl(4-methoxy-N-(2-quinolinyl-methylene)-aniline)]Cl]
IC50 (MDA-MB-231 mammospheres [1]; read-out: IC50 (μM), growth of MDA-MB-231 mammospheres): 2.2 µM | IC50 (MCF-7; 72 h, MTT): 0.68 ± 0.23 µM | IC50 (MDA-MB-231; [9]): 1.2 ± 0.1 µM | IC50 (MDA-MB-231; [10]): 0.28 ± 0.1 µM | IC50 (MDA-MB-231 mammospheres [2]; 72 h): 1.4 ± 0.1 µM | Number of MCF-7 mammospheres (MCF-7 mammospheres): 238 ± 86 | Size (μm) of MCF-7 mammospheres (MCF-7 mammospheres): 130 ± 15 μm | Number of MDA-MB-231 mammospheres (MDA-MB-231 mammospheres [3]): 103 ± 41 | Size (μm) of MDA-MB-231 mammospheres (MDA-MB-231 mammospheres [3]): 93 ± 29 μm | decrease in number of MDA-MB-231 mammospheres (MDA-MB-231 mammospheres [3]): 20% | decrease in size of MDA-MB-231 mammospheres (MDA-MB-231 mammospheres [3]): 18% | Number of MDA-MB-231 secondary mammospheres [4]: 102 ± 28 | Size (μm) of MDA-MB-231 secondary mammospheres [4]: 69 ± 3 μm | propensity to form secondary mammospheres [4]: drastically reduced propensity to form secondary mammospheres | dispersion of cells into collagen after 4 hr (MDA-MB-231 mammospheres [6]): did not exhibit significant dispersion | dispersion of cells into collagen after 28 hr / entire incubation period (MDA-MB-231 mammospheres [6]): only slight dispersion | body weight of LM3 tumor-bearing mice [7]: neither Ru^TEN1 nor Ru^TEN3 had caused lost in body weight

CC[C@@H](C(=O)[C@@H](C)[C@@H](O)[C@H](C)[C@@H]1O[C@@H]([C@@H](CC)C(=O)O)CC[C@@H]1C)[C@H]1O[C@]2(C=C[C@@H](O)[C@]3(CC[C@@](C)([C@H]4CC[C@](O)(CC)[C@H](C)O4)O3)O2)[C@H](C)C[C@@H]1C [Saliomycin, salinomycin]
IC50 (MCF-7; Homo sapiens, MCF7, 72 h): 0.51 ± 0.03 µM | IC50 (MDA-MB-231; Homo sapiens, MDA-MB-231, 24 h, read-out: IC50 (μM) MDA-MB-231 24 h): 31 ± 4 µM | IC50 (MDA-MB-231; Homo sapiens, MDA-MB-231, 72 h, read-out: IC50 (μM) MDA-MB-231 72 h): 0.56 ± 0.09 µM | IC50 (MDA-MB-231 mammospheres [2]; Homo sapiens, MDA-MB-231, 72 h): 8.3 ± 2.4 µM | Number of MCF-7 mammospheres (MCF-7 mammospheres): 176 ± 73 | Size (μm) of MCF-7 mammospheres (MCF-7 mammospheres): 117 ± 21 μm | decrease in number of MCF-7 mammospheres (MCF-7 mammospheres; versus control): 33% | decrease in size of MCF-7 mammospheres (MCF-7 mammospheres; versus control): 9% | Number of MDA-MB-231 mammospheres (MDA-MB-231 mammospheres [3]): 87 ± 28 | Size (μm) of MDA-MB-231 mammospheres (MDA-MB-231 mammospheres [3]): 84 ± 25 μm | decrease in number of MDA-MB-231 mammospheres (MDA-MB-231 mammospheres [3]): 30% | decrease in size of MDA-MB-231 mammospheres (MDA-MB-231 mammospheres [3]): 30% | Number of MDA-MB-231 secondary mammospheres [4]: 224 ± 74 | Size (μm) of MDA-MB-231 secondary mammospheres [4]: 82 ± 8 μm | propensity to form secondary mammospheres [4]: only slight changes in size and number of mammospheres | reduction of ALDHbright sub-population [5]: 89% | dispersion of cells into collagen after 4 hr (MDA-MB-231 mammospheres [6]): did not exhibit significant dispersion | dispersion of cells into collagen after 28 hr / entire incubation period (MDA-MB-231 mammospheres [6]): only slight dispersion | body weight / toxicity in MDA-MB-231 tumor-bearing mice [8]: low toxicity
